Experimental data reported in US8309546B2, “Morpholinopurine derivatives” (Daiichi Sankyo Company, Limited, priority 2008, dated 2012).

Assays:
[1] = target: T1, human mTOR (His-tagged mTOR (1362C)) (Homo sapiens, UniProt P42345); assay: mTOR kinase activity inhibition assay; assay type: biochemical; details: HTRF, read-out: IC50 against mTOR
T1 construct: the 1362 to 2549 amino acid portion on the C terminus side of human mTOR; His tag (N); made in house
How it was run: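 Crude His-tagged mTOR (aa 1362–2549) from stable HEK293 cells, with 8 μg/ml biotinylated peptide in 50 mM HEPES pH 7.5, 20 mM MnCl2; compound diluted in 20 μM ATP solution, reaction 3 h at room temperature. Phospho-peptide detected by HTRF (anti-phospho-S6K Thr389 cryptate/streptavidin-XL665, overnight at 4°C), 665/620 nm ratio. IC50 derived from curve fit of % inhibition.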

[2] = test system: human endometrial cancer cell strain AN3CA tumor; assay: Anti-tumor effect assay using mouse subcutaneous transplantation model; assay type: in vivo, female nude mouse; details: AN3-CA, oral, tumor weight vs negative control, read-out: Anti-tumor effect (tumor growth inhibition rate); for inhibition in vivo at 10 mg/kg/day / inhibition in vivo at 2.5 mg/kg/day / inhibition in vivo at 5 mg/kg/day: 8 or 5 consecutive days depending on compound
Procedure: A tumor section was prepared from a human endometrial cancer cell strain AN3CA tumor mass formed in a female nude mouse as a subcutaneously transplanted tumor and then a xenograft model was prepared by transplanting the tumor section into female nude mouse. Tumor-bearing mice having an estimated tumor volume (long diameter×short diameter×short diameter/2) of 80 to 200 mm^3 were divided, so that there should be no significant difference in the mean estimated tumor volume and body weight as compared with the negative control group to perform a test. The test compound was orally administered at a predetermined dose for 8 consecutive days. On the following day of the final administration day, tumor-bearing mice were anesthetized and exsanguinated to death and a tumor mass was isolated to measure tumor weight (the compounds of Examples 1, 3, 6, 8, 11, 12, and 14). Furthermore, as a similar test, the test compound was orally administered for 5 consecutive days, animals were sacrificed on the final administration day, and tumor weight was measured (the compounds of Examples 60, 63, 75, 77, 79, 89, 92, 107, 108, 109, 110, and 127).
In all the tests, anti-tumor effect was calculated by the following formula. {1−(tumor weight in compound treatment group/tumor weight in negative control group)}×100

T1 sequence (P42345 1362-2549): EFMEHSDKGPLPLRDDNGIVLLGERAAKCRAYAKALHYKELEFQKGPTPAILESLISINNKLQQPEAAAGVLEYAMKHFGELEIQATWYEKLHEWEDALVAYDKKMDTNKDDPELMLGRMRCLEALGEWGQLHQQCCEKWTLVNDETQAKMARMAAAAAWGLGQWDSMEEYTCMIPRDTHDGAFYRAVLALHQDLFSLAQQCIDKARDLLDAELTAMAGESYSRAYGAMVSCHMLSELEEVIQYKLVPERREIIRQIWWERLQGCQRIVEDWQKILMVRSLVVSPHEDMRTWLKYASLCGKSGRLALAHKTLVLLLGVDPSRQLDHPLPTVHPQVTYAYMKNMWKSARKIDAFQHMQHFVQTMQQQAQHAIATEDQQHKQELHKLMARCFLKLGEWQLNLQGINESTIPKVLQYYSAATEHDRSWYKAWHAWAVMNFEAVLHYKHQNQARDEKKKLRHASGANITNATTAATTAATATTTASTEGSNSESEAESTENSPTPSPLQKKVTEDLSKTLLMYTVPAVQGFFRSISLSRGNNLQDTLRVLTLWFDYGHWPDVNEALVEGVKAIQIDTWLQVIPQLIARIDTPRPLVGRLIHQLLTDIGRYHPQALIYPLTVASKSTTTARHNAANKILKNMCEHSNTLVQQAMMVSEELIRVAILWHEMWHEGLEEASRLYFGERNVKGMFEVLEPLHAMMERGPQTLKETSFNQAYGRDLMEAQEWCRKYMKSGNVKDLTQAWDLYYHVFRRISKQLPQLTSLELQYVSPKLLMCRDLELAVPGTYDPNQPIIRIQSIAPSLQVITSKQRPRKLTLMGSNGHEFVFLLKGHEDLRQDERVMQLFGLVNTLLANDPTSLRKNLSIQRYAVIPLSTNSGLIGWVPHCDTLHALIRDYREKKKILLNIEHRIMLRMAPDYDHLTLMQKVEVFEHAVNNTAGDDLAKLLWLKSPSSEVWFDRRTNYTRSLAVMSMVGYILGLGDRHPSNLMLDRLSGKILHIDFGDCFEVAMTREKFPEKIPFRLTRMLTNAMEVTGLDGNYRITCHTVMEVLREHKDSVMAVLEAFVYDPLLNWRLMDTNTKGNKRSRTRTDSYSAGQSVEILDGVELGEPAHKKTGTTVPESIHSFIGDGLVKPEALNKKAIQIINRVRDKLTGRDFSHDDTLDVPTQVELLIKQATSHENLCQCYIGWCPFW

## CC(C)Cn1c(N2CCN(C(=O)CN(C)C)CC2)nc2c(N3CCOCC3)nc(-c3cnc(N)nc3)nc21 [Example 55, 5-(8-{4-[(Dimethylamino)acetyl]piperazin-1-yl}-9-isobutyl-6-morpholin-4-yl-9H-purin-2-yl)pyrimidin-2-amine]
[1]
  IC50: 0.03 to 0.1 µM
[2]
  inhibition in vivo at 10 mg/kg/day: 32%
[2]; 20 mg/kg/day, consecutive days
  inhibition in vivo at 20 mg/kg/day: 59%

## CC(=O)N1CCN(c2nc3c(N4CCOCC4)nc(-c4cnc(N)nc4)nc3n2CC(F)(F)F)C[C@H]1C [Example 60, 5-{8-[(3R)-4-Acetyl-3-methylpiperazin-1-yl]-6-morpholin-4-yl-9-(2,2,2-trifluoroethyl)-9H-purin-2-yl}pyrimidin-2-amine]
[1]
  IC50: < 0.01 µM
[2]; 120 h, 1.5 mg/kg/day, 5 consecutive days
  inhibition in vivo at 1.5 mg/kg/day: 64%
[2]; 120 h, 6 mg/kg/day, 5 consecutive days
  inhibition in vivo at 6 mg/kg/day: 89%

## CC(=O)N1CCN(c2nc3c(N4CCOCC4)nc(-c4cnc(N)nc4)nc3n2CC(F)(F)F)C[C@@H]1C [Example 63, 5-{8-[(3S)-4-Acetyl-3-methylpiperazin-1-yl]-6-morpholin-4-yl-9-(2,2,2-trifluoroethyl)-9H-purin-2-yl}pyrimidin-2-amine]
[1]
  IC50: < 0.01 µM
[2]; 120 h, 0.875 mg/kg/day, 5 consecutive days
  inhibition in vivo at 0.875 mg/kg/day: 52%
[2]; 120 h, 3.5 mg/kg/day, 5 consecutive days
  inhibition in vivo at 3.5 mg/kg/day: 88%

## CC[C@H]1CN(c2nc3c(N4CCOCC4)nc(-c4cnc(N)nc4)nc3n2CC(F)(F)F)CCN1C(C)=O [Example 75, 5-{8-[(3S)-4-Acetyl-3-ethylpiperazin-1-yl]-6-morpholin-4-yl-9-(2,2,2-trifluoroethyl)-9H-purin-2-yl}pyrimidin-2-amine]
[1]
  IC50: < 0.01 µM
[2]; 120 h, 5 consecutive days
  inhibition in vivo at 1.875 mg/kg/day: 44%
  inhibition in vivo at 7.5 mg/kg/day: 77%

## CC[C@H]1CN(c2nc3c(N4CCOCC4)nc(-c4cnc(N)nc4)nc3n2CC(F)(F)F)CCN1C(=O)[C@H](C)O [Example 77, (2S)-1-{(2S)-4-[2-(2-Aminopyrimidin-5-yl)-6-morpholin-4-yl-9-(2,2,2-trifluoroethyl)-9H-purin-8-yl]-2-ethylpiperazin-1-yl}-1-oxopropan-2-ol]
[1]
  IC50: 0.01 to 0.03 µM
[2]; 120 h, 3.75 mg/kg/day, 5 consecutive days
  inhibition in vivo at 3.75 mg/kg/day: 47%
[2]; 120 h, 15 mg/kg/day, 5 consecutive days
  inhibition in vivo at 15 mg/kg/day: 84%

## CC[C@@H]1CN(c2nc3c(N4CCOCC4)nc(-c4cnc(N)nc4)nc3n2CC(F)(F)F)CCN1C(=O)[C@H](C)O [Example 79]
[1]
  IC50: < 0.01 µM
[2]
  inhibition in vivo at 2.5 mg/kg/day: 27%
  inhibition in vivo at 10 mg/kg/day: 59%

## CC(C)Cn1c(N2CCN(C(=O)C[C@@H](C)O)CC2)nc2c(N3CCOCC3)nc(-c3cnc(N)nc3)nc21 [Example 81, (2R)-4-{4-[2-(2-Aminopyrimidin-5-yl)-9-isobutyl-6-morpholin-4-yl-9H-purin-8-yl]piperazin-1-yl}-4-oxobutan-2-ol]
[1]
  IC50: 0.01 to 0.03 µM
[2]
  inhibition in vivo at 5 mg/kg/day: 37%
  inhibition in vivo at 10 mg/kg/day: 74%

## C[C@H](O)C(=O)N1CCN(c2nc3c(N4CCOCC4)nc(-c4cnc(N)nc4)nc3n2CC2CC2)CC1 [Example 88, (2S)-1-{4-[2-(2-Aminopyrimidin-5-yl)-9-(cyclopropylmethyl)-6-morpholin-4-yl-9H-purin-8-yl]piperazin-1-yl}-1-oxopropan-2-ol]
[1]
  IC50: 0.03 to 0.1 µM
[2]
  inhibition in vivo at 5 mg/kg/day: 30%
  inhibition in vivo at 10 mg/kg/day: 54%

## CC(C)Cn1c(N2CCN(C(=O)CO)CC2)nc2c(N3CCOCC3)nc(-c3cnc(N)nc3)nc21 [Example 89, 2-{4-[2-(2-Aminopyrimidin-5-yl)-9-isobutyl-6-morpholin-4-yl-9H-purin-8-yl]piperazin-1-yl}-2-oxoethanol]
[1]
  IC50: 0.01 to 0.03 µM
[2]
  inhibition in vivo at 5 mg/kg/day: 56%
  inhibition in vivo at 10 mg/kg/day: 69%

## CC(C)Cn1c(N2CCN(C=O)CC2)nc2c(N3CCOCC3)nc(-c3cnc(N)nc3)nc21 [Example 90, 4-[2-(2-Aminopyrimidin-5-yl)-9-isobutyl-6-morpholin-4-yl-9H-purin-8-yl]piperazine-1-carboaldehyde]
[1]
  IC50: 0.01 to 0.03 µM
[2]
  inhibition in vivo at 5 mg/kg/day: 40%
  inhibition in vivo at 10 mg/kg/day: 80%

## C[C@H](O)C(=O)N1CCN(c2nc3c(N4CCOCC4)nc(-c4cnc(N)nc4)nc3n2CC2CC2)C[C@@H]1C [Example 92, (2S)-1-{(2S)-4-[2-(2-Aminopyrimidin-5-yl)-9-(cyclopropylmethyl)-6-morpholin-4-yl-9H-purin-8-yl]-2-methylpiperazin-1-yl}-1-oxopropan-2-ol]
[1]
  IC50: 0.01 to 0.03 µM
[2]
  inhibition in vivo at 5 mg/kg/day: 52%
  inhibition in vivo at 10 mg/kg/day: 61%

## CC(C)Cn1c(N2CCN(C(=O)[C@@H](C)O)CC2)nc2c(N3CCOCC3)nc(-c3cnc(N)nc3)nc21 [Example 93]
[1]
  IC50: 0.01 to 0.03 µM
[2]
  inhibition in vivo at 2.5 mg/kg/day: 42%
  inhibition in vivo at 5 mg/kg/day: 54%

## C[C@H](O)C(=O)N1CCN(c2nc3c(N4CCOCC4)nc(-c4cnc(N)nc4)nc3n2CC2CC2)C[C@H]1C [Example 95, (2S)-1-{(2R)-4-[2-(2-Aminopyrimidin-5-yl)-9-(cyclopropylmethyl)-6-morpholin-4-yl-9H-purin-8-yl]-2-methylpiperazin-1-yl}-1-oxopropan-2-ol]
[1]
  IC50: 0.01 to 0.03 µM
[2]
  inhibition in vivo at 5 mg/kg/day: 44%
  inhibition in vivo at 10 mg/kg/day: 62%

## CC(C)Cn1c(N2CCN(C=O)[C@H](C)C2)nc2c(N3CCOCC3)nc(-c3cnc(N)nc3)nc21 [Example 100, (2R)-4-[2-(2-Aminopyrimidin-5-yl)-9-isobutyl-6-morpholin-4-yl-9H-purin-8-yl]-2-methylpiperazine-1-carboaldehyde]
[1]
  IC50: 0.01 to 0.03 µM
[2]
  inhibition in vivo at 2.5 mg/kg/day: 53%
  inhibition in vivo at 5 mg/kg/day: 62%

## CC(=O)N1CCN(c2nc3c(N4CCOCC4)nc(-c4cnc(N)nc4)nc3n2CC(C)C)C[C@@H]1C [Example 101, 5-{8-[(3S)-4-Acetyl-3-methylpiperazin-1-yl]-9-isobutyl-6-morpholin-4-yl-9H-purin-2-yl}pyrimidin-2-amine]
[1]
  IC50: < 0.01 µM
[2]
  inhibition in vivo at 2.5 mg/kg/day: 42%
  inhibition in vivo at 5 mg/kg/day: 69%

## CC(C)Cn1c(N2CCN(C=O)[C@@H](C)C2)nc2c(N3CCOCC3)nc(-c3cnc(N)nc3)nc21 [Example 102, (2S)-4-[2-(2-Aminopyrimidin-5-yl)-9-isobutyl-6-morpholin-4-yl-9H-purin-8-yl]-2-methylpiperazine-1-carboaldehyde]
[1]
  IC50: < 0.01 µM
[2]
  inhibition in vivo at 2.5 mg/kg/day: 54%
  inhibition in vivo at 5 mg/kg/day: 64%

## CNc1ncc(-c2nc(N3CCOCC3)c3nc(N4CCN(C(C)=O)[C@@H](C)C4)n(CC(F)(F)F)c3n2)cn1 [Example 107, 5-{8-[(3S)-4-Acetyl-3-methylpiperazin-1-yl]-6-morpholin-4-yl-9-(2,2,2-trifluoroethyl)-9H-purin-2-yl}-N-methylpyrimidin-2-amine]
[1]
  IC50: < 0.01 µM
[2]; 120 h, 1.25 mg/kg/day, 5 consecutive days
  inhibition in vivo at 1.25 mg/kg/day: 46%
[2]
  inhibition in vivo at 5 mg/kg/day: 76%

## CNc1ncc(-c2nc(N3CCOCC3)c3nc(N4CCN(C(C)=O)[C@H](C)C4)n(CC(F)(F)F)c3n2)cn1 [Example 108, 5-{8-[(3R)-4-Acetyl-3-methylpiperazin-1-yl]-6-morpholin-4-yl-9-(2,2,2-trifluoroethyl)-9H-purin-2-yl}-N-methylpyrimidin-2-amine]
[1]
  IC50: < 0.01 µM
[2]
  inhibition in vivo at 2.5 mg/kg/day: 53%
  inhibition in vivo at 10 mg/kg/day: 82%

## C[C@H](O)C(=O)N1CCN(c2nc3c(N4CCOCC4)nc(-c4cnc(N)nc4)nc3n2CC(F)(F)F)C[C@@H]1C [Example 109, (2S)-1-{(2S)-4-[2-(2-Aminopyrimidin-5-yl)-6-morpholin-4-yl-9-(2,2,2-trifluoroethyl)-9H-purin-8-yl]-2-methylpiperazin-1-yl}-1-oxopropan-2-ol]
[1]
  IC50: < 0.01 µM
[2]; 120 h, 5 consecutive days
  inhibition in vivo at 1.875 mg/kg/day: 42%
  inhibition in vivo at 7.5 mg/kg/day: 80%
